The values below come from ChEMBL document CHEMBL3638939, “Tetrahydroisoquinolines, pharmaceutical compositions containing them, and their use in therapy” (2014).

Assay [1] deals with T1, Sodium- and chloride-dependent glycine transporter 1 (Homo sapiens, UniProt P48067).
T1 sequence (P48067 whole entry): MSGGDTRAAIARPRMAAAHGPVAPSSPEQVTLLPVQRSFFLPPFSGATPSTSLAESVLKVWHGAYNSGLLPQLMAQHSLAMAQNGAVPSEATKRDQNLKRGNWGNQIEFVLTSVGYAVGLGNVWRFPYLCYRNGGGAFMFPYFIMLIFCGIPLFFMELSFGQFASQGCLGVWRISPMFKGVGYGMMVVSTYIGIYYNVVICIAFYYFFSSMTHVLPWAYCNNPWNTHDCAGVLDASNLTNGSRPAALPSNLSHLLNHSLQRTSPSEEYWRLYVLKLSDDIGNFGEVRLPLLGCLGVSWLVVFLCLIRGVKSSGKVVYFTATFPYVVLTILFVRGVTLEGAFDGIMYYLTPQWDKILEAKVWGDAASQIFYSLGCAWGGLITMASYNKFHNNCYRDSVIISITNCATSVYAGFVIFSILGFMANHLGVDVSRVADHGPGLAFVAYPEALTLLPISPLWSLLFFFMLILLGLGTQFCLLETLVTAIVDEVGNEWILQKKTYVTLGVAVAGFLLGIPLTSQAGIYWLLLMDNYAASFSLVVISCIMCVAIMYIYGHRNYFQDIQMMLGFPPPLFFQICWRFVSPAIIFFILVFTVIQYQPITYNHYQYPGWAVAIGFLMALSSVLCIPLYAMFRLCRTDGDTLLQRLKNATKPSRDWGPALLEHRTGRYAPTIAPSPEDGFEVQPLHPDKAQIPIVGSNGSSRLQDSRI
Briefly: Radioligand Binding Assay: Radioligand binding to human GlyT1c transporter-expressing membranes was carried out as described in Mezler et al., Molecular Pharmacology 74:1705-1715, 2008.More specifically, [3H]-(R)-NPTS radioligand binding to human GlyT1c transporter-expressing membranes was measured in duplicate in a total volume of 200 ul in 96-well plates. To 100 ul of membrane suspension (yielding a final membrane protein concentration of 50 ug/ml) in assay buffer (120 mM NaCl, 2 mM KCl, 10 mM Hepes, 1 mM MgCl2, 1 mM CaCl2, pH 7.5) 80 ul of [3H]-(R)-NPTS (0.5 nM final) were added in assay buffer. For competition experiments 10 ul of buffer or unlabeled compound solution obtained from dilution series of test compounds in DMSO followed. An intermediate 1:10 dilution in assay buffer yielded a final DMSO concentration of 1%. Non-specific binding was determined in the presence of 10 uM Org24598 (or its racemate Org24461) for [3H]-(R)-NPTS.

Assay [2] addresses T1, Sodium- and chloride-dependent glycine transporter 1. Put plainly: Glycine Uptake Assay: [3H]-Glycine uptake into recombinant CHO cells expressing human GlyT1: Human GlyT1c expressing recombinant hGlyT1c_5_CHO cells were plated at 20,000 cells per well in 96 well Cytostar-T scintillation microplates (Amersham Biosciences) and cultured to sub-confluency for 24 h. For glycine uptake assays the culture medium was aspirated and the cells were washed once with 100 ul HBSS (Gibco BRL, #14025-050) with 5 mM L-Alanine (Merck #1007). 80 ul HBSS buffer were added, followed by 10 ul inhibitor or vehicle (10% DMSO) and 10 ul [3H]-glycine (TRK71, Amersham Biosciences) to a final concentration of 200 nM for initiation of glycine uptake. The plates were placed in a Wallac Microbeta (PerkinElmer) and continuously counted by solid phase scintillation spectrometry during up to 3 hours. Nonspecific uptake was determined in the presence of 10 uM Org2 4598. IC50 calculations were made by four-parametric logistic nonlinear regressi on analysis (GraphPad Prism). Type of assay: cell-based.

Where only a bound is given, the exact number is not on record here.

For orientation: Ki means the dissociation constant of the complex between target and ligand, obtained from inhibition or displacement. Usually IC50 stands for the midpoint of a concentration-inhibition curve.

Take `Cc1oncc1S(=O)(=O)NCCOc1ccc2c(c1)C(C1(c3ccc(Cl)cc3)CCC1)NCC2` (stereo not given): the Ki in assay [1] was below 10 µM.
Take `CCCS(=O)(=O)NCCOc1ccc2c(c1)C(C1(c3cccc(F)c3)CCC1)NCC2` (stereo not given): in assay [2], the IC50 was below 0.1 µM. Besides, the Ki in assay [1] was below 0.1 µM.
For the compound `O=C1c2ccccc2C(=O)N1CCS(=O)(=O)NCCOc1ccc2c(c1)C(C1(c3ccc(Cl)cc3)CCC1)NCC2` (stereo not given), the IC50 in assay [2] was below 100 µM. The inhibitory constant (Ki) in assay [1] was below 10 µM.
